In one test the test system is muramidase. Nature of the test: Enzyme activity (muramidase) of the polypeptide. It is filed as biochemical, bacteriophage T4.
The test system of the next test is Escherichia coli cells. Nature of the test: Relative survival rates of Escherichia coli cells after 1 hr incubation (bactericidal activity). The conditions noted are these: for Relative survival rate of Escherichia coli cells: in 0.1 × PBS, 1 hr incubation. It is filed as cell-based. The method, then:
The antibiotic effectiveness of the polypeptides of the invention is illustrated by their effect on survival rates of Escherichia coli cells in Table 1.
(§1) The bactericidal effect of the individual fragments is readily determined by incubation (use of 1-10 μg polypeptide for a quantity of 1×10^7 bacteria cells) for one hour with Escherichia coli or other gram-negative (e.g. Erwinia carotovora, Agrobacterium tumefaciens, Pseudomonas fluorescens) or gram-positive type of bacteria (e.g. Micrococcus lysodeikticus, Clavibacter michiganensis), followed by plating out a dilution series of the suspension, and counting the surviving bacteria. The fungicidal effect of the individual fragments is determined by incubation for 20 hours with spores of Phytophthora nicotianae, or other fungus types, followed by plating out to determine the reduced growth length of the fungus hyphae. The activity is determined in relation to purified T4 lysozyme as standard.

The test system of another test is Phytophthora nicotianae. The test is described as follows: Fungus tests: relative lengths of germ tubes (untitled table, buffers I/II). It is filed as cell-based. The method, then:
Fungus tests: Relative lengths of germ tubes
as §1

Test [1] has as its system Phytophthora nicotianae zoospores. Nature of the test: Relative length of germ tubes of Phytophthora nicotianae zoospores (fungicidal activity, Table 2). The conditions noted are these: 10 μg, in 0.1 xPBS, after 7 hrs, against blank control. It is filed as cell-based.

Like-named read-outs stand apart in the source and are kept apart here.

For PNRAKRVIFTFRT [Peptide A4], the figures for the “Enzyme activity (muramidase), in words” value in the test with muramidase and in the test on muramidase (listed as amino acid 143-155) were “no enzymatic muramidase activity” and “none of the native enzymatic activity”, respectively. In addition, the “Relative survival rate of Escherichia coli cells” value with Escherichia coli cells (1 μg) is listed as 0.74 +/− 0.14; in the test on Escherichia coli cells (10 μg) it was 0.05 +/− 0.09. Also, in the test with Escherichia coli cells (comment on Table 1), the “Bactericidal activity compared with T4 lysozyme, in words” value is on record as “significantly higher bactericidal activity”. The “Relative lengths of germ tubes” value in the test on Phytophthora nicotianae (1 μg, in buffer I (20 μl buffer Al + 1 μl PBS)) was found to be 0.59. In test [1], the “Relative length of germ tubes” value was determined as 0.48.
Take “WDEAAVNLAKSRWYNQ [Peptide A23, peptide including AA 126-141 of T4 lysozyme]”: the “Relative lengths of germ tubes” value with Phytophthora nicotianae (10 μg, in buffer II (20 μl buffer Al + 1 μl 50% DMSO/50% PBS)) is on record as 0.69.
